The subject of one experiment is CT-26 tumor. Nature of the experiment: Local gNO administration to CT26 tumor-bearing mice, primary tumor. It is filed as in vivo, Balb/c mouse. The protocol: Test article treatment: Mice were first anesthetized by an intraperitoneal (i.p) injection of 100 mg/kg ketamine and 20 mg/kg xylazine hydrochloride solution. After 10 minutes, tumor-bearing mice were treated with the indicated dose of gNO.
In all protocols, the gas was delivered from NO in N2 cylinders. The outlet pressure was set to 2-3.5 bar using a pressure regulator that was connected directly to the cylinder.
In protocols that involve administration by needle injection, a silicone hose was connected directly to the pressure regulator on one end and to a manual or digital MFC on the other end. The flow was adjusted to 0.05 LPM-0.25 LPM. An additional silicone hose was connected to the flow controller as well as to a 23 G hypodermic needle. The needle was inserted horizontally into the center of each tumor.
Mice were inoculated subcutaneously with 5×10^5 CT-26 cells suspended in 100 μL Hank's Balanced Salt Solution (HBSS) into the low lateral side of the back. Local tumor growth was determined by measuring two mutually orthogonal tumor diameters with a caliper. The volume of the tumor was calculated using the formula: Vol=D1×D2×D2/2, where D1, D2 are two mutually orthogonal tumor diameters.
Air-1 is a female Balb/c mouse that was treated twice. On day 0 the tumor volume was 64.85 mm^3. […] This was followed by air administration for 4 minutes administered to the outer layer of the tumorusing a cap, such as shown in FIG. 11C.
NO-1 is a female Balb/c mouse and was treated once. […] Then, the skin was removed from the tumor, and the tumor was re-exposed to gNO via a perforated flask filled with gNO using the same parameters.
NO-2 is a male Balb/c mouse and was treated 3 times. On day 0 the tumor volume was 38.51 mm^3. Day 0—gNO at 50,000 ppm was administered for 3.8 minutes at a flow rate of 0.9 using a cap. Day 5: gNO at 10,000 ppm was administered for 30 minutes using a cap. Then, gNO was delivered intra-tumorally by a 23 G needle such as shown in FIG. 11B at 0.3 LPM for another 10 minutes, using an intra-tumoral channel. The tip of the needle was directed at the outside area. Day 11: gNO at 10,000 ppm was delivered to the tumor for 5 minutes and at a flow rate of 0.3 LPM, using a 23 G needle and an intra-tumoral channel.
In an additional set of experiments, aluminum disposable gas cylinders were used. A flow meter was connected directly to the cylinder, to which a gas delivery tubing was connected. The tumor was inserted into a small flask trough a 1 cm hole and a plastic holder. A small hole at the bottom of the flask enabled to lower the pressure inside the flask. […]

The next experiment has as its system CT26 challenge tumor. Description: Challenge assay in CT26 tumor-bearing mice. It is filed as in vivo, mouse. The protocol:
Challenge tumor inoculation: Up to 21 days after gas treatment was applied to the primary tumor, the appropriate cancer cell suspensions were prepared as described herein and inoculation of cells was repeated on the contralateral flank of the mice. Administration was performed as soon as possible following cell suspension preparation and after manual shaking prior to withdrawal of the cell suspension.
The percentage of challenge tumor take was monitored 2-3 times a week by taking a look at the inoculated site and touching this area to look for small tumors that are not yet visible. Naïve mice inoculated with tumor cells for the first time served as an internal control.
Mixing of cells was performed immediately before injection to minimize leukocyte interactions within the syringe. Mice were observed 2-3 times a week and tumor development was determined by caliper measurements of tumor dimensions as described herein. Splenocytes were extracted from a CT26 tumor-bearing mouse, which was previously treated with 25,000 ppm NO for two 15-minute courses. This mouse was re-inoculated with CT26 cancer cells 12 days post treatment. […] Tumor take of visible outgrowths was monitored 2 to 3 times per week by taking a look at the inoculated site and touching this area to look for small tumors that are not yet visible Naïve mice inoculated s.c. with 500,000 CT26 served as the control group. […]

A further experiment relates to 4T1 cells. Nature of the experiment: Third inoculation with 4T1 breast cancer cells in CT26 gNO-immunized mouse. The format is in vivo, Balb/c mouse. Conditions: mouse treated with 25,000 ppm NO twice 15 minutes; 4T1 inoculated 30 days post second inoculation. As for the experimental part:
Balb/c mouse was inoculated with 500,000 CT26 cells to the right flank. CT26 tumor was treated with 25,000 ppm NO for 15 minutes at a flow rate of 0.25 LPM. Seven days post gas treatment, this mouse was treated once again using the same protocol. Twelve days post the first NO treatment, this mouse was re-inoculated with 500,000 CT26 cells to the left flank. A third inoculation of cancer cells was performed 30 days post the second cell inoculation, using mouse breast cancer cells, was performed as well and the growth of a third inoculation of breast cancer cells, 4T1 cells. Forty-four days post challenge assay start (second inoculation), this mouse was sacrificed, and his spleen was harvested and preserved in RPMI-based media at 4° c. until processing of it. The spleen was processed into a sterile 35 mm culture dish containing 5 ml of RPMI-based media. Any extra connective tissues or fat was trimmed from the spleen. The flat end of a plunger was used to mince the spleen by crushing the spleen to release the splenocytes. A 70 μm strainer was primed by passing 1 ml of PBS through it and placed on a sterile 50 mL conical tube. The pellet was collected and transferred through the strainer via a 5 mL serological pipette. The strainer was washed with 3 mL of RPMI-based media. Tube will be centrifuged at 300×g for 10 minutes. […]

For the molecule `[N]=O` [gNO, nitric oxide], the “tumor in photographs after treatment” value with CT-26 tumor (10,000 ppm gNO in flask, 0.9 LPM, 20 minutes, up to 14 days post treatment) was “the tumor was destructed”. Further, the mice cured in the experiment with CT-26 tumor (25,000 ppm gNO intra-tumoral, 15 minutes, 0.25 LPM, repeated a week later, 44 days post the first treatment) is given as 50%. Moreover, the “tumor 9 days after treatment” value in the experiment with CT-26 tumor (200,000 ppm gNO for 2 seconds, 0.01 LPM) was “the tumor disappeared”. Also, the “size of air-treated tumor relative to gNO-treated tumors” value with CT-26 tumor (mice NO-1 and NO-2, 10,000-50,000 ppm gNO, 12 days post treatment 1) was “more than times bigger”. Besides, the “rejection of secondary CT26 tumor cell inoculation” value with CT26 challenge tumor (25,000 ppm 30 minutes, 50,000 ppm 10 minutes or 200,000 ppm 2-35 seconds, end of follow-up) is given as “all NO-treated mice rejected a secondary CT26 tumor cell inoculation”. Besides, in the experiment with CT26 challenge tumor (25,000 ppm NO two 15-minute courses, re-inoculated 12 days post treatment, 44 days after challenge), the “tumor development after CT26 re-inoculation” value is “no signs of tumor development were detected”. The “growth of a third inoculation of breast cancer cells” value with 4T1 cells is recorded as “inhibited”.

Values taken from patent US12691234B2, “Methods employing gaseous nitric oxide for inhibiting tumor growth” (Beyond Air, Inc., priority 2019, dated 2026).
